From publication PMC6981581, “N-(2-Arylmethylthio-4-Chloro-5-Methylbenzenesulfonyl)amide Derivatives as Potential Antimicrobial Agents—Synthesis and Biological Studies” (International Journal of Molecular Sciences, 2019)
≈ marks a conversion by molar mass, not a printed value. Where “and” joins values, the source holds several entries; their conditions need not be identical. Equal entries are not always repeated. Where two headings read alike, the source gives them in different places.

Tests used:
[1] = tested on: Pseudomonas aeruginosa ATCC 15442; experiment: Broth dilution MIC/MBC, reference strain; type: cell-based
Description: (§1) The tests were carried out using a serial dilution method, allowing the determination of MIC (minimal concentration inhibiting bacterial growth), MBC (minimal bactericidal concentration), and MFC (minimal fungicidal concentration) values.
(§2) Antimicrobial activity was tested using the following reference strains: Staphylococcus aureus ATCC 6538 (MSSA), Staphylococcus aureus ATCC 43300 (MRSA), Staphylococcus epidermidis PCM 2118, Escherichia coli ATCC 11229, Pseudomonas aeruginosa ATCC 15442, Proteus vulgaris NCTC 4635, Enterococcus faecalis ATCC 11420, and Candida albicans ATCC 10231.
(§3) A broth dilution method was used to determine minimal inhibitory concentration (MIC) for tested compounds as recommended by Clinical Laboratory Standards Institute (CLSI) guidelines. Investigated compounds were diluted in Mueller Hinton Broth 2 (Sigma-Aldrich Co., St. Louis, MO, USA) in polypropylene 96-well plates and initial inoculum 5 × 10^5 cfu/mL were incubated at 37 °C for 18 h. MIC was taken as the lowest drug concentration at which an observable growth was inhibited. […] The loopful (10 µL) of the tested sample was transferred to Tryptic Soy Agar (TSA, Becton-Dickinson, Franklin Lakes, NJ, USA) and incubated at 37 °C for 48 h. […] Drug Solutions were made fresh on the day of the assay. All experiments were performed in triplicate.

[2] = tested on: Staphylococcus aureus ATCC 6538 (MSSA); experiment: Broth dilution MIC/MBC, reference strain; type: cell-based
Description: as §1, §2, §3

[3] = tested on: Proteus vulgaris NCTC 4635; experiment: Broth dilution MIC/MBC, reference strain; type: cell-based
Description: as §1, §2, §3

[4] = tested on: Enterococcus faecalis ATCC 11420; experiment: Broth dilution MIC/MBC, reference strain; type: cell-based
Description: as §1, §2, §3

[5] = tested on: Escherichia coli ATCC 11229; experiment: Broth dilution MIC/MBC, reference strain; type: cell-based
Description: as §1, §2, §3

[6] = tested on: HaCaT cell line (human keratinocyte); experiment: MTT cell viability assay; type: cell-based; details: MTT assay, 72 h incubation, mean ± SD, read-out: IC50 HaCaT
S.aureus 59 (MSSA) = experiment: Broth dilution MIC/MBC, clinical MSSA isolate; type: cell-based; details: Staphylococcus aureus, clinical MSSA S.aureus 59
Source text: (§4) […]. Both MRSA and MSSA strains were derived from various human infections.
(§5) […]. Five methicillin-resistant S. aureus strains were isolated from nose (n = 1), bronchoalveolar lavage (n = 1), sputum (n = 1), wound (n = 1), and blood (n = 1); five methicillin-susceptible S. aureus strains were isolated from throat (n = 1), bronchoalveolar lavage (n = 1), sputum (n = 1), abscess (n = 1), and blood (n = 1).
(§6) The identity of S. aureus isolates was confirmed with conventional methods and with Pastorex Staph-Plus latex agglutination kit (Bio-Rad, Marnes-la-Coquette, France) and verified applying the polymerase chain reaction (PCR) of S. aureus-specific region of the thermonuclease gene, nuc. Resistance to methicillin was first verified using cefoxitin disk (30 µg), and then, identified based on the presence of mecA gene. S. aureus ATCC®25923 (methicillin-susceptible) and S. aureus ATCC®43300 (MDR) were applied as the reference strains. Both the reference and clinical strains were stored at −80 °C, in Tryptic Soy Broth (TSB, Becton-Dickinson, Franklin Lakes, NJ, USA) supplemented with 15% glycerol.
as §3

S.aureus 56 (MSSA) = experiment: Broth dilution MIC/MBC, clinical MSSA isolate; type: cell-based; details: Staphylococcus aureus, clinical MSSA S.aureus 56
Source text: as §4, §5, §6, §3

S.aureus 58 (MSSA) = experiment: Broth dilution MIC/MBC, clinical MSSA isolate; type: cell-based; details: Staphylococcus aureus, clinical MSSA S.aureus 58
Source text: as §4, §5, §6, §3

S.aureus 57 (MSSA) = experiment: Broth dilution MIC/MBC, clinical MSSA isolate; type: cell-based; details: Staphylococcus aureus, clinical MSSA S.aureus 57
Source text: as §4, §5, §6, §3

S.aureus 55 (MSSA) = experiment: Broth dilution MIC/MBC, clinical MSSA isolate; type: cell-based; details: Staphylococcus aureus, clinical MSSA S.aureus 55
Source text: as §4, §5, §6, §3

HCT-116 (colon cancer) = experiment: MTT cell viability assay; type: cell-based; details: Homo sapiens, 72 h incubation, mean ± SD
Description: (§7) Analysis was performed using the MTT test and 72 h of incubation.
(§8) All chemicals were obtained from Sigma-Aldrich (St. Louis, MO, USA). The MCF-7 and HeLa cell lines were purchased from Cell Lines Services (Eppelheim, Germany), the HCT-116 cell line was purchased from ATCC (ATCC-No: CCL-247). Cells were cultured in Dulbecco’s modified Eagle’s medium (DMEM) supplemented with 10% fetal bovine serum, 2 mM glutamine, 100 units/mL penicillin, and 100 μg/mL streptomycin. Cultures were held in an incubator (Heraceus, HeraCell) in a humidified atmosphere with 5% CO2 at 37 °C.
(§9) Cell viability was evaluated using the MTT (3-(4,5-dimethylthiazol-2-yl)-2,5-diphenyltetrazolium bromide) assay. Stock solutions of the studied compounds were obtained in 100% DMSO. […] Cells at a density of 5 × 10^3 cells/well, seeded in 96-well plates, were treated for 72 h with the tested compounds in the concentration range 1–100 μM (1, 10, 25, 50 and 100 μM). After treatment, cells were incubated for 2 h with MTT (0.5 mg/mL) at 37 °C. Cells were lysed with DMSO and the absorbance of the formazan solution was measured at 550 nm with a plate reader (1420 multilabel counter, Victor, Jügesheim, Germany). Values are expressed as the mean ± SD of at least three independent experiments conducted in triplicate.

MCF-7 (breast cancer) = experiment: MTT cell viability assay; type: cell-based; details: Homo sapiens, MCF7, 72 h incubation, mean ± SD
Description: as §7, §8, §9

HeLa (cervical cancer) = experiment: MTT cell viability assay; type: cell-based; details: Homo sapiens, 72 h incubation, mean ± SD
Description: as §7, §8, §9

[7] = tested on: clinical isolates of methicillin-resistant S. aureus (50–54) and methicillin-sensitive S. aureus (55–59); experiment: Broth dilution MIC/MBC, summary over clinical S. aureus isolates; type: cell-based, Staphylococcus aureus
Source text: as §4, §5, §6, §3

- MBC/MIC ([1]; P. a. ATCC 15442): >1
- MIC ([1]; Pseudomonas aeruginosa, ATCC15442, P. aeruginosa ATCC 15442, read-out: MIC): 128 µg/mL (≈ 240 µM)
- MBC/MIC ([2]; S. a. ATCC 6538): 8
- MIC ([2]; Staphylococcus aureus, S. aureus ATCC 6538, read-out: MIC): 8 µg/mL (≈ 15 µM)
- MBC/MIC ([3]; P. v. NCTC 4635): >1
- MIC ([3]; Proteus vulgaris, NCTC4635, P. vulgaris NCTC 4635, read-out: MIC): 128 µg/mL (≈ 240 µM)
- MBC/MIC ([4]; E. f. ATCC 11420): 8
- MIC ([4]; Enterococcus faecalis, ATCC11420, E. faecalis ATCC 11420, read-out: MIC): 8 µg/mL (≈ 15 µM)
- MBC/MIC ([5]; E. c. ATCC 11229): >1
- MIC ([5]; Escherichia coli, ATCC11229, E. coli ATCC 11229, read-out: MIC): 128 µg/mL (≈ 240 µM)
- MIC (S.aureus 59 (MSSA); read-out: MIC): 4 µg/mL (≈ 7.49 µM)
- MIC (S.aureus 56 (MSSA); read-out: MIC): 4 µg/mL (≈ 7.49 µM)
- MIC (S.aureus 58 (MSSA); read-out: MIC): 4 µg/mL (≈ 7.49 µM)
- MIC (S.aureus 57 (MSSA); read-out: MIC): 4 µg/mL (≈ 7.49 µM)
- MIC (S.aureus 55 (MSSA); read-out: MIC): 4 µg/mL (≈ 7.49 µM)
- IC50 (HCT-116 (colon cancer)): 78 ± 3 µM
- IC50 (MCF-7 (breast cancer)): 81 ± 3 µM
- IC50 (HeLa (cervical cancer)): 94 ± 3 µM
- MIC ([7]; Staphylococcus aureus, reference MRSA and MSSA strains as well as clinical isolates, read-out: MIC): 4 to 8 µg/mL (≈ 7.49 to 15 µM)
- MIC ([7]; Staphylococcus aureus, summary over ten clinical MRSA and MSSA isolates (Table 4), read-out: MIC): 4 µg/mL (≈ 7.49 µM)
- MIC ([7]; summary over ten clinical MRSA and MSSA isolates (Table 4)): 4 to 8 µg/mL
Compound: Cc1cc(S(=O)(=O)NC(=O)CCC2CCCCC2)c(SCc2cccc(C(F)(F)F)c2)cc1Cl [Compound 10, N-[4-Chloro-5-methyl-2-(3-trifluoromethylbenzylthio)benzenesulfonyl]-3-cyclohexylpropanamide]
- MBC ([1]; Pseudomonas aeruginosa, ATCC15442, P. aeruginosa ATCC 15442, read-out: MBC): > 128 µg/mL
- MBC ([2]; Staphylococcus aureus, S. aureus ATCC 6538, read-out: MBC): 64 µg/mL (≈ 120 µM)
- MBC ([3]; Proteus vulgaris, NCTC4635, P. vulgaris NCTC 4635, read-out: MBC): > 128 µg/mL
- MBC ([4]; Enterococcus faecalis, ATCC11420, E. faecalis ATCC 11420, read-out: MBC): 64 µg/mL (≈ 120 µM)
- MBC ([5]; Escherichia coli, ATCC11229, E. coli ATCC 11229, read-out: MBC): > 128 µg/mL
- IC50 [6]: 95 µg/mL and 178 µM
- MBC (S.aureus 59 (MSSA); read-out: MBC): > 128 µg/mL
- MBC (S.aureus 56 (MSSA); read-out: MBC): > 128 µg/mL
- MBC (S.aureus 58 (MSSA); read-out: MBC): > 128 µg/mL
- MBC (S.aureus 57 (MSSA); read-out: MBC): > 128 µg/mL
- MBC (S.aureus 55 (MSSA); read-out: MBC): > 128 µg/mL
- MBC ([7]; Staphylococcus aureus, summary over ten clinical MRSA and MSSA isolates (Table 4), read-out: MBC): > 128 µg/mL
